Experimental data published in patent publication US20160235807A1, “AGONISTS OF GUANYLATE CYCLASE USEFUL FOR DOWNREGULATION OF PRO-INFLAMMATORY CYTOKINES” (SYNERGY PHARMACEUTICALS, INC., priority 2013, published 2016).
Bridge positions count the residues as written; N and C are the ends. Square brackets hold non-standard residues; d marks the D form. Peptide text beside a SMILES is read from it.

Legend:
[1] = molecular target: T1, GC-C Receptor (Homo sapiens, UniProt P25092); assay: Cyclic GMP stimulation assay in T84 cells; assay type: cell-based
T1 construct: endogenous in cells; host or cells: T84 human colon carcinoma cells
T1 sequence (P25092 24-1073): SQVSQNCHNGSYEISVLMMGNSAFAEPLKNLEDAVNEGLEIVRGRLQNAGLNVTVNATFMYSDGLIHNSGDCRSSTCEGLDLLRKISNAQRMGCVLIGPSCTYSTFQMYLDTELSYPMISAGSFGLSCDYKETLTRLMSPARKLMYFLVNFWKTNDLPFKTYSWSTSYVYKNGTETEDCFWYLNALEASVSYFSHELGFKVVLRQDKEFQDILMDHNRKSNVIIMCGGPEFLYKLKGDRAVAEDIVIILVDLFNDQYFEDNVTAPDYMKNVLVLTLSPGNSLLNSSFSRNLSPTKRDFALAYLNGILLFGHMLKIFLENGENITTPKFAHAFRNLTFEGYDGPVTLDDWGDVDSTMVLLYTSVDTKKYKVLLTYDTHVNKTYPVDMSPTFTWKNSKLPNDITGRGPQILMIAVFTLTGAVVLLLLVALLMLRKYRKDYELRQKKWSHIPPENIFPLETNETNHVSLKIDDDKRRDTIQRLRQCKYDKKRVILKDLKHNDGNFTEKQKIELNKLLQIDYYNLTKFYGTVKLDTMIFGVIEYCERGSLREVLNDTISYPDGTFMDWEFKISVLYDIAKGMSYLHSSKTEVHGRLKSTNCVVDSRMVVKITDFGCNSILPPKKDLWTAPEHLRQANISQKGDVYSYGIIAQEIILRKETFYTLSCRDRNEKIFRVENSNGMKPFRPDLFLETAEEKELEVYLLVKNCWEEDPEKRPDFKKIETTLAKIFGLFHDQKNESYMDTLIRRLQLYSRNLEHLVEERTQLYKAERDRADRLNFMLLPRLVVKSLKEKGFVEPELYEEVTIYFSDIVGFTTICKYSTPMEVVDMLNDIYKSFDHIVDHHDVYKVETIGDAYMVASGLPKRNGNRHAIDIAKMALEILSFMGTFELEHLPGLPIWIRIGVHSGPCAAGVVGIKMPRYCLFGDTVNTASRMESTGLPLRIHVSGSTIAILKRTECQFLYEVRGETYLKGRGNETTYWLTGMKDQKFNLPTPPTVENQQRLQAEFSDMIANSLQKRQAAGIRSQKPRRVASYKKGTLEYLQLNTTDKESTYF
Protocol: The potency of test peptides to stimulate cGMP synthesis in T84 cells was assayed by a published procedure (Shailubhai et al. 2000). Briefly, confluent monolayers of T-84 cells in 24-well plates were washed twice with 250 μl of DMEM containing 50 mM HEPES (pH 7.4), pre-incubated at 37° C. for 10 min with 250 μl of DMEM containing 50 mM HEPES (pH 7.4) and 1 mM isobutylmethylxanthine (IBMX), followed by incubation with test peptide for 30 min. The medium was aspirated, and the reaction was terminated by the addition of 3% perchloric acid. Following centrifugation, and neutralization with 0.1 N NaOH, the resulting supernatant was used directly for measurements of intracellular cGMP using an ELISA kit (Caymen Chemical, Ann Arbor, Mich.). Results are expressed as pmol of cGMP/mg of protein in the cell extracts.

[2] = tested on: NF-κB; assay: Inhibition of NF-κB signaling in LPS-stimulated T84 cells, Western blot; assay type: cell-based, human
Protocol: Approximately 1.5×10^6 T84 cells were seeded into 100 mm dishes and cultured essentially as described (Shailubhai et al. 2000). At 85-90% confluence, cells were washed and treated with 10 μg/ml lipopolysaccharides (LPS) from Escherichia coli (Sigma-Aldrich, St. Louis, Mo.) for 4 h. Subsequent to LPS treatment, cells were washed and replenished with fresh media containing 8-Bromo-cyclic GMP (8-Br-cGMP) at 0, 0.1, 1, 10, 100 and 1000 μM (Enzo Life Science, Farmingdale, N.Y.), or SP-333 at 0, 0.01, 0.1, 1 and 10 μM together with 500 μM of phosphodiesterase inhibitor Zaprinast (Sigma-Aldrich, St. Louis, Mo.) for 16 h before harvest. For analyzing phosphorylation status of IKK-α/β, T84 cells were stimulated with LPS (10 μg/ml) for 4 h followed by treatment with 0.1 and 1.0 μM of SP-333 in the presence of 500 μM Zaprinast, for 2 h. The control cells (without LPS treatment) were washed and refilled with fresh media and harvested simultaneously with treated cells. Nuclear and cytosolic extracts were prepared by the previously described method (Aiamkitsumrit et al. 2007). Protein concentration was measured with a Bio-Rad protein assay kit (Bio-Rad, Hercules, Calif.). The extracts were stored at −80° C. until use.
T84 cells at 85-90% confluence were washed and treated with 10 μg/ml Escherichia coli LPS (Sigma-Aldrich, St. Louis, Mo.) for 4 h.
Western Blot analysis: This was performed essentially as described^21 employing either 50 μg of cytoplasmic or 25 μg proteins of the nuclear fractions. The blots were probed overnight with primary antibodies of interest (anti-p65 antibody, 1:200 dilution; anti-IκB antibody 1:500 dilution; anti-phosphorylated p65 antibody, 1:250 dilution; anti-phosphorylated IκB antibody 1:250 dilution; all were from Santa Cruz Biotechnology (Santa Cruz, Calif.). Anti-IKK-β and phosphorylated IKK-α/β (Ser 176/180) were purchased from Cell Signaling Technology, Boston, Mass. and used at 1:500 dilution; anti-mouse or anti-rabbit antibodies conjugated to […] were used for chemiluminescence detection as recommended by manufacturer (GE Healthcare, Piscataway, N.J.).

[3] = tested on: T84 cells; assay: Quantitative RT-PCR for transcripts in T84 cells; assay type: cell-based, human
Protocol: T-84 cells (˜10^7 cells) were treated with 1 μM SP-333 for 5 h. Subsequently, cDNA was prepared from total RNA using High Capacity RNA-to-cDNA Kit (Applied Biosystems, Carlsbad, Calif.) according to manufacturer's instructions. Quantitative Real-Time PCR amplification and analysis were carried out using Lightcycler 480 (Roche, Basel Switzerland), p65 and IKK-13 specific Taqman gene expression assays and Lightcycler 480 Probe master. All amplification assays were performed in duplicate employing 20 ng cDNA (based on input RNA). The total reaction volume was adjusted to 20 μL with appropriate amounts of TaqMan gene expression assays, Lightcycler 480 probe master and distilled water, then subjected to 45 PCR cycles using default cycling parameters. GAPDH transcript was used as endogenous control. The data generated were analyzed and expressed as target gene expression relative to endogenous control using comparative Cp method and 2^−ΔΔCp formula (comparative Cp values and advanced quantitative relative quantification method). TaqMan reagents were obtained from Applied Biosystems (Carlsbad, Calif.).
T-84 cells were treated with 1 μM SP-333 for 5 hours. Subsequently, cDNA was prepared from total RNA and subjected to quantitative Real-Time PCR using TaqMan reagents from Applied Biosystems.

[4] = tested on: Ki-67 labeling of crypt epithelial cells; assay: Ki-67 labeling in large bowel cross sections, DSS-induced colitis in BDF-1 mice; assay type: in vivo, mouse
Description: A total of 40 samples were chosen for analysis of MPO activity and Ki-67 labeling from the treatment groups that received SP-333, its vehicle control (0.1M phosphate buffer, pH 7) and the reference compound (5-ASA). A random number generator (www.random.org) was employed to select samples from these groups (7 from each of the SP-333-recipient groups and 6 from each of the vehicle and 5-ASA groups).
Employing standard procedures, two non-serial sections from each animal, were de-waxed in xylene and rehydrated in graded alcohols to PBS (pH 7.4). Endogenous peroxidase was blocked by incubation in 0.3% […] for 30 min. Antigen retrieval was performed by placing the slides in 1 L of citrate buffer (pH 6) and microwaving at high power for 20 minutes. After cooling for 15 minutes, sections were incubated with 10% normal goat serum for 30 minutes to block non-specific binding Primary antibody (mouse monoclonal IgG, clone MIB-1, Dako) at 1/50 dilution was added and incubated for 1 hour at room temperature. Sections were washed and incubated with biotinylated secondary IgG antibody (1/200 dilution; Vector Labs Inc.), for 45 minutes at room temperature. Subsequently, slides were washed and incubated with ABC Elite reagents (Vector Labs Inc.), for 30 minutes at room temperature. […] Sections were counterstained with thionine, dehydrated and mounted.

[5] = Non-clinical safety and toxicology studies; details: rodents and monkeys, oral
[6] = SP-333 1 μM, 5 h, compared to unstimulated T84 cells, FIG. 3D
[7] = T84 cells, compared to untreated cells, FIG. 16

CC(C)C[C@@H]1NC(=O)[C@H](CCC(=O)O)NC(=O)[C@@H](NC(=O)[C@H](CCC(=O)O)NC(=O)[C@H](CC(=O)O)NC(=O)[C@H](N)CC(N)=O)CSSC[C@@H]2NC(=O)[C@H](C)NC(=O)[C@H](C(C)C)NC(=O)[C@H](CC(N)=O)NC(=O)[C@H](C(C)C)NC(=O)[C@H](CSSC[C@@H](C(=O)N[C@H](CC(C)C)C(=O)O)NC(=O)CNC(=O)[C@H]([C@@H](C)O)NC2=O)NC1=O [SP-333, dAsn^1-Asp^2-Glu^3-Cys^4-Glu^5-Leu^6-Cys^7-Val^8-Asn^9-Val^10-Ala^11-Cys^12-Thr^13-Gly^14-Cys^15-dLeu^16] (H-[dN]DECELCVNVACTGC[dL]-OH; disulfide 4-12, 7-15; N-terminus and C-terminus assumed)
potency to stimulate cGMP in T84 cells [1]: dose dependent increase in cGMP | EC50 ([1]; 30 min with peptide, 1 mM IBMX): 283 nM | levels of phospho-p65 ([2]; LPS 10 μg/ml 4 h, then SP-333 (1.0 and 10 μM) 16 h, zaprinast 500 μM): reduced levels of phospho-p65 in a dose-dependent manner | levels of IκBα ([2]; LPS-activated T84 cells): increase | levels of phospho-IκBα ([2]; LPS-activated T84 cells): reduced | level of total IKKβ ([2]; LPS-activated T84 cells, FIG. 3C): remained unchanged | LPS-mediated increase in phosphorylation of IKKβ ([2]; SP-333 1 μM, 2 h after LPS 4 h): completely reversed | LPS induced activation of NF-κB ([2]; T84 cells): inhibited | reduction of transcript levels of IKK-13 [3, 6]: approximately 50% | reduction of transcript levels of p65 [3, 6]: approximately 50% | decrease in IKKβ expression [3, 7]: 59% | decrease in p65 expression [3, 7]: 55% | crypts with normal Ki-67 labeling, comparison among groups ([4]; SP-333 0.005 mg/kg): greatest percentage of crypts with normal Ki-67 labeling | proportion of Ki-67 positive crypts ([4]; SP-333 0.005 mg/kg/day (DSS control 35.3±4.86%)): 60.4±6.96% | proportion of Ki-67 positive crypts ([4]; SP-333 0.05 mg/kg/day): 58.7±7.3% | proportion of crypts with Ki-67 labeling vs DSS treated control ([4]; SP-333 treated sections): larger proportions of crypts with Ki-67 labeling | non-clinical safety and toxicology [5]: orally-safe drug candidate
